This is an account of results in patent US9029092B2, “Solution phase homogeneous assays” (Beckman Coulter, Inc., priority 2009, dated 2015).

The subject of one assay is TnI. Briefly: Assays utilizing various SSIA in TnI assay. The class given is biochemical. The following applies: for Signal/Noise S1/S0: calibrator S1; for Signal/Noise S2/S0: calibrator S2; for Signal/Noise S3/S0: calibrator S3; for Signal/Noise S4/S0: calibrator S4; for Signal/Noise S5/S0: calibrator S5; for Signal/Noise S6/S0: calibrator S6. The procedure: In a reaction tube, 400 uL of TnI M6 antibody-HRP conjugate at 0.5 ug/mL in buffered aqueous solution at pH. 8.0 (100 mM Tris, 150 mM NaCl, 0.1 mM EDTA, 0.2% Tween-20 and 1% BSA), 400 uL of AK1˜Dex70/31˜Streptavidin (fraction 1) 2:1 SA/Ab at 2 ug/mL Ab also in buffered aqueous solution at pH 8.0, and 400 uL of calibrator standard solution containing the TnI analyte at a known concentration. One tube was prepared for each calibrator concentration. […] Next, 25 uL of each antioxidant as a concentrated solution of 2 mM, 1 mM or 0.5 mM was pipetted into the plate wells using a repeater pipette. The plates were rotated for 10 seconds to mix and incubated between 5 to 33 minutes. Detection was performed with a SpectraMax L injection plate luminometer.

The subject of the next assay is biotinylated HRP. In words: Model system for selection of SSIA (AK1/streptavidin BSA microparticles + biotinylated HRP). The class given is biochemical, horseradish. The following applies: SSIA 100 μM final; for light intensity, BTN-HRP0: Btn-HRP 0 ng/mL; for light intensity, BTN-HRP0 / light intensity, BTN-HRP1 / light intensity, BTN-HRP10 / light intensity, BTN-HRP100 / light intensity, BTN-HRP250: total HRP 500 ng/mL; for S1/S0: Btn-HRP 1 ng/mL vs 0; for light intensity, BTN-HRP1: Btn-HRP 1 ng/mL; for S2/S0: Btn-HRP 10 ng/mL vs 0; for light intensity, BTN-HRP10: Btn-HRP 10 ng/mL; for S3/S0: Btn-HRP 100 ng/mL vs 0; for light intensity, BTN-HRP100: Btn-HRP 100 ng/mL; for S4/S0: Btn-HRP 250 ng/mL vs 0; for light intensity, BTN-HRP250: Btn-HRP 250 ng/mL. How it is done:
The model system uses a microparticle conjugated to BSA (bovine serum albumin) labeled with a […] and acridan ketenedithioacetal chemiluminescent label (AK1) as the chemiluminescent-labeled sbp, and biotinylated HRP as the activator-labeled specific binding pair. In the model system, varying amounts of Btn-HRP is added to the chemiluminescent-labeled specific binding pair at 0, 1, 10, 100 and 250 ng/mL. Additional unlabeled HRP is added to reach a total HRP of concentration of 500 ng/mL in each reaction mixture. The unlabeled HRP in combination with the activator-labeled sbp was provided to the chemiluminescent-labeled sbp microparticles to emulate sample. A compound for assessment as an SSIA was also added. This reaction mixture of the model system is then triggered by addition of trigger solution in a manner of assays of the present disclosure.
To prepare the chemiluminescent-labeled sbp on microparticles, Bovine Serum Albumin (BSA) was biotinylated with 4× molar excess of biotin-LC-sulfoNHS (Pierce Biotechnology Inc., Rockford, Ill., USA). Unbound reactants were removed via desalting or dialysis. The biotin-BSA was then reacted with a 5× molar excess of an NHS ester of acridan ketenedithioacetal AK1 in 20 mM sodium phosphate pH 7.2: DMSO 75:25, v/v) followed by desalting in the same buffer. The dual labeled (biotin and AK1) BSA was then coupled with tosyl activated M280 microparticles (Invitrogen Corporation, Carlsbad, Calif., USA) in a 0.1M borate buffer pH 9.5 at a concentration of about 20 μg of labeled BSA per mg of microparticles for 16-24 h at 40° C. After coupling the microparticles were stripped for 1 h at 40° C. with 0.2 M TRIS base, 2% SDS, pH˜11. The stripping process was repeated one additional time. Microparticles were then suspended in a 0.1% BSA/TRIS buffered saline (BSA/TBS) buffer and streptavidin (SA) was added at approximately 15 μg SA per mg microparticles. Streptavidin was mixed with the microparticles for 45-50 min at room temperature. The microparticles were then washed three times and suspended in the same BSA/TBS.
HRP, (Roche Diagnostics, Indianapolis, Ind., USA) was biotinylated with 4× molar excess of biotin-LC-sulfoNHS (Pierce Biotechnology Inc., Rockford, Ill., USA). Alternatively, 25× molar excess of biotin-PEO4-NHS may be used. Unbound reactants were removed via desalting or dialysis.
Each SSIA compound for assessment was solubilized in Buffer II at a concentration at least 10× of the working strength concentration.
25 μl of 1 mg/ml of dual-labeled (biotin and AK1) BSA M280 particles were mixed with 45 μl of working concentration SSIA in Buffer II. The assay volume brought to 85 μl by adding 15 μl of Buffer II. 15 μl of sample containing Btn-HRP:HRP at different ratios (The amount of biotinylated-HRP varied from 0, 1, 10, 100 and 250 ng/mL) was added. The reaction mixture was incubated for 30 min at 37° C., then 100 μL of trigger solution was added and the light intensity recorded. Total volume of reaction mixture, including trigger solution was 200 μL with a final concentration of 100 μM of SSIA.
The screening tests were performed using a modified DxI® Immunoassay System (Beckman Coulter, Inc. Brea, Calif.) as described above.

The mark [1] stands for this setting: SSIA final concentration 125 uM.
Where [2] appears, read: SSIA final concentration 250 uM.
Where [3] appears, read: SSIA final concentration 500 uM.
[4] abbreviates: SSIA final concentration 6.25 uM.
Setting [5] is: SSIA final concentration 12.5 uM.

Regarding `Nc1cc(C[C@H](N)C(=O)O)ccc1O` [3-Amino Tyrosine], in the assay with TnI (setting [1]), the “Signal/Noise S1/S0” value is 1.5, the “Signal/Noise S2/S0” value is listed as 2.8, the “Signal/Noise S3/S0” value was found to be 9.0 and the “Signal/Noise S4/S0” value turned out to be 32.2. Further, in the assay on TnI (setting [1]), the “Signal/Noise S5/S0” value was 234.8 and the “Signal/Noise S6/S0” value is 2268.7. In the assay with TnI (setting [2]), the “Signal/Noise S1/S0” value worked out at 1.7, the “Signal/Noise S2/S0” value amounted to 2.7, the “Signal/Noise S3/S0” value amounted to 8.1 and the “Signal/Noise S4/S0” value came to 31.1. Besides, in the assay on TnI (setting [2]), the “Signal/Noise S5/S0” value turned out to be 217.9 and the “Signal/Noise S6/S0” value was 1772.4. Moreover, in the assay with TnI (setting [3]), the “Signal/Noise S1/S0” value was 1.1, the “Signal/Noise S2/S0” value amounted to 1.9, the “Signal/Noise S3/S0” value is listed as 5.9 and the “Signal/Noise S4/S0” value is on record as 19.8. Moreover, in the assay on TnI (setting [3]), the “Signal/Noise S5/S0” value came to 118.6 and the “Signal/Noise S6/S0” value was 766.3.

As for `NNC(=O)c1cccnc1` [Nicotinic Hydrazide], in the assay on biotinylated HRP, the “light intensity, BTN-HRP0” value was 42,260; the S1/S0 turned out to be 1.4; the “light intensity, BTN-HRP1” value is on record as 58,356; the S2/S0 is listed as 49.8. Besides, in the assay with biotinylated HRP, the “light intensity, BTN-HRP10” value is 2,106,471; the S3/S0 is given as 194.2; the “light intensity, BTN-HRP100” value was 8,205,320; the S4/S0 was determined as 187.5. Also, in the assay on biotinylated HRP, the “light intensity, BTN-HRP250” value is reported as 7,923,092 and the “effectiveness as SSIA in the model system” value (“effectiveness as SSIA” below) is “insuffient effectiveness”.

Consider `Oc1ccc(C=Cc2cc(O)cc(O)c2)cc1` [Resveratrol], for which, in the assay on biotinylated HRP, the “light intensity, BTN-HRP0” value is on record as 64,051; the S1/S0 came to 1.3; the “light intensity, BTN-HRP1” value is reported as 81,452; the S2/S0 was 16.8. Moreover, in the assay with biotinylated HRP, the “light intensity, BTN-HRP10” value is 1,073,968; the S3/S0 is 92.8; the “light intensity, BTN-HRP100” value was 5,944,792; the S4/S0 worked out at 102.4. Further, the “effectiveness as SSIA” value with biotinylated HRP is on record as “insuffient effectiveness”.

As for `COc1cc(C(=O)O)cc(OC)c1O` [Syringic Acid], in the assay on biotinylated HRP, the “light intensity, BTN-HRP0” value is 14,485; the S1/S0 is given as 1.6; the “light intensity, BTN-HRP1” value is 23,707; the S2/S0 came out at 64.8. Besides, in the assay with biotinylated HRP, the “light intensity, BTN-HRP10” value is given as 939,372; the S3/S0 was found to be 547.2; the “light intensity, BTN-HRP100” value is reported as 7,927,096; the S4/S0 was 658. The “light intensity, BTN-HRP250” value in the assay on biotinylated HRP was 9,530,979.

Regarding `CC1(C)CC(O)CC(C)(C)N1[O]` [TEMPOL], in the assay with biotinylated HRP, the “light intensity, BTN-HRP0” value was 22,621; the S1/S0 amounted to 1.5; the “light intensity, BTN-HRP1” value is reported as 33,873; the S2/S0 worked out at 86.8. Also, in the assay on biotinylated HRP, the “light intensity, BTN-HRP10” value was 1,963,369; the S3/S0 was 407.6; the “light intensity, BTN-HRP100” value is listed as 9,220,799; the S4/S0 was determined as 467.6. In the assay on biotinylated HRP, the “light intensity, BTN-HRP250” value is recorded as 10,578,104 and the “effectiveness as SSIA” value is “insuffient effectiveness”.

For the molecule `O=c1[nH]c(=O)c2[nH]c(=O)[nH]c2[nH]1` [Uric Acid], in the assay with biotinylated HRP, the “light intensity, BTN-HRP0” value is listed as 5,532; the S1/S0 was 1.8; the “light intensity, BTN-HRP1” value is 9,760; the S2/S0 was found to be 185.3. In addition, in the assay with biotinylated HRP, the “light intensity, BTN-HRP10” value is on record as 1,025,209; the S3/S0 is on record as 1574.9; the “light intensity, BTN-HRP100” value is 8,712,328; the S4/S0 amounted to 1935.8. Besides, the “light intensity, BTN-HRP250” value in the assay on biotinylated HRP is given as 10,708,733.

As to `c1ccc2c(c1)Nc1ccccc1O2` [phenoxazine], in the assay on TnI (setting [4]), the “Signal/Noise S1/S0” value worked out at 1.5, the “Signal/Noise S2/S0” value was 3.1, the “Signal/Noise S3/S0” value is 8.4 and the “Signal/Noise S4/S0” value worked out at 32.1. Moreover, in the assay on TnI (setting [4]), the “Signal/Noise S5/S0” value is reported as 227.2 and the “Signal/Noise S6/S0” value was found to be 2049.8. Further, in the assay on TnI (setting [5]), the “Signal/Noise S1/S0” value was found to be 1.5, the “Signal/Noise S2/S0” value is recorded as 2.3, the “Signal/Noise S3/S0” value turned out to be 6.4 and the “Signal/Noise S4/S0” value stood at 24.5. In the assay with TnI (setting [5]), the “Signal/Noise S5/S0” value turned out to be 147.2 and the “Signal/Noise S6/S0” value amounted to 1116.9. In the assay on TnI (SSIA final concentration 25 uM), the “Signal/Noise S1/S0” value is given as 1.3, the “Signal/Noise S2/S0” value is listed as 1.6, the “Signal/Noise S3/S0” value is 3.7 and the “Signal/Noise S4/S0” value is recorded as 12.1. Also, in the assay on TnI (SSIA final concentration 25 uM), the “Signal/Noise S5/S0” value is 62.8 and the “Signal/Noise S6/S0” value was 387.3.

(+/−)-alpha-Tocopherol: in the assay with biotinylated HRP, the “light intensity, BTN-HRP0” value is recorded as 2,772; the S1/S0 is 2.3; the “light intensity, BTN-HRP1” value was 6,468; the S2/S0 amounted to 452.1. Also, in the assay with biotinylated HRP, the “light intensity, BTN-HRP10” value was 1,253,187; the S3/S0 came to 3088.2; the “light intensity, BTN-HRP100” value was 8,560,469; the S4/S0 is listed as 3473.4. In the assay with biotinylated HRP, the “light intensity, BTN-HRP250” value is listed as 9,628,184.
